Experimental findings from ChEMBL document CHEMBL1142904, “Modulating effects of a novel skin-lightening agent, alpha-lipoic acid derivative, on melanin production by the formation of DOPA conjugate products” (Bioorg Med Chem, 2007) are described below.

The source made the active and inactive calls. The calls are words filed in the database; no cut-off is given here.

Data set [1] concerns the target T1, Tyrosinase (Agaricus bisporus) (UniProt O42713).
T1 sequence (whole entry): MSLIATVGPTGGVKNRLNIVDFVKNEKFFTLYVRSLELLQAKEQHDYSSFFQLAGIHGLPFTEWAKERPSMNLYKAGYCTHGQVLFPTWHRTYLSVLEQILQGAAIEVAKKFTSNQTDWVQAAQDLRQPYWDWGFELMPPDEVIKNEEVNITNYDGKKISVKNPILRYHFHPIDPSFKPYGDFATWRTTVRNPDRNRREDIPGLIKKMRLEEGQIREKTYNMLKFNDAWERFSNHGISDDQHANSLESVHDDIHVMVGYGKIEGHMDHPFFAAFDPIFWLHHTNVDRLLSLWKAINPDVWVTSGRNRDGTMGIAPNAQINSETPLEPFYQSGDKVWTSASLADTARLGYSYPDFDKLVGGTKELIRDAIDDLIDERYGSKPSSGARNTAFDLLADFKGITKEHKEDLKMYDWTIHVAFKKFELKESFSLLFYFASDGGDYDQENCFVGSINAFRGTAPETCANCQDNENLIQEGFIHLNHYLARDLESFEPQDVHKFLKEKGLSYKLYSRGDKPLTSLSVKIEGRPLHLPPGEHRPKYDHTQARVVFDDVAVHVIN
The note with it: 4 uM.

For the next data set, the system named is B16. The data set can be described thus: Inhibition of melanin synthesis in mouse B16 cells at 75 uM after 3 days. Particulars: B16, 72 h. Type of data set: functional.
The target in the next data set is T2, Tyrosinase (Agaricus bisporus, UniProt O42713).
T2 sequence (O42713 whole entry): T1 sequence (whole entry)
The data set can be described thus: Inhibition of mushroom tyrosinase.

For data set [2], the target named is T1, Tyrosinase (Agaricus bisporus). Put plainly: Inhibition of mushroom tyrosinase catalyzed oxidation of L-DOPA assessed as DOPAchrome formation at 120 uM.
Substrate in data set [3]: N[C@@H](Cc1ccc(O)c(O)c1)C(=O)O
Put plainly: Activity of mushroom tyrosinase. Particulars: Agaricus bisporus.

Substrate in data set [4]: O=C(CCCCC1CCS[Zn]S1)NC(Cc1c[nH]cn1)C(=O)O
The note with it: Agaricus bisporus; 1.3 uM.

In turn, `O=C(CCCCC1CC[S][Zn][S]1)NC(Cc1c[nH]cn1)C(=O)O` (centres undefined) [SODIUM ZINC DIHYDROLIPOYLHISTIDINATE] registered an inhibition in data set [1] of 82.9%. The molecule also came in with an inhibition at 75 µM in the data set on B16 of 41.5%. The midpoint of inhibition against Tyrosinase, the IC50, lay at 1300 nM. Moreover, the outcome in data set [2] was Active.
On to `OC[C@H]1O[C@H](Oc2ccc(O)cc2)[C@H](O)[C@@H](O)[C@@H]1O`, for which, in the data set with B16, the inhibition at 75 µM turned out to be 38.3%.
In the data set on B16, `O=C(O)CCCC[C@@H](S)CCS` [DIHYDROLIPOIC ACID] returned an inhibition at 75 µM of 36.3%. Besides, the result in data set [2] was Active.

B1: Tyrosinase (Agaricus bisporus), O42713 (protein)
chain: T1 sequence (whole entry)
With B1, the Km in data set [3] was 860 µM; in data set [4] it was 4.1 µM.
